US5399552A, “Antibiotic peptides bearing aminoalkylthioether moieties” (Merck & Co, Inc, priority 1991, dated 1995)

Legend:
C. parapsilosis MY 1010 = assay: Minimum fungicidal concentration (MFC), microbroth dilution assay in YNBD; type: cell-based, Candida parapsilosis; details: 35° C. 24 hours, then SDA 24 hours at 28° C.
Procedure: (§1) The compounds of the present invention are active against many fungi and particularly against Candida species. The antifungal properties may be illustrated with the minimum fungicidal concentration (MFC) determination against certain Candida organisms in a microbroth dilution assay carried out in a Yeast Nitrogen Base (Difco) medium with 1% dextrose (YNBD).
(§2) In carrying out the assay, Compound A-Ia was solubilized in 10 percent dimethyl sulfoxide (DMSO) and diluted to 2560 μg/ml. The compound was then diluted to 256 μg/ml in YNBD.
(§3) The yeast cultures, maintained on Sabouraud dextrose agar were transferred to YN broth (Difco) and incubated overnight at 35° C. with shaking (250 rpm). After incubation, each culture was diluted in sterile water to yield a final concentration of 1-5×10^6 colony forming units (CFU)/ml.
(§4) 96-well microplates were inoculated using a MIC-2000 (Dynatech) which delivers […] per well yielding a final inoculum per well of 1.5-7.5×10^3 cells. The microplates were incubated at 35° C. for 24 hours. The minimum inhibitory concentrations (MICs) were recorded as the lowest concentrations of drug showing no visible growth.
(§5) After recording the MIC, the plates were shaken to resuspend the cells. […] The inoculated trays were incubated 24 hours at 28° C. and then read for minimum fungicidal concentration (MFC). […]

Candida albicans MY 1055 = assay: In vivo effectiveness in mice infected I.V. with Candida albicans, kidney CFU; set-up: species or system female DBA/2 mice; details: 0.4 mg/kg I.P. twice daily for four consecutive days; kidneys of DBA/2 mice after seven days
Procedure: Growth from an overnight SDA culture of Candida albicans MY 1055 was suspended in sterile saline and the cell concentration determined by hemacytometer count and the cell suspension adjusted to 3.75 x 10^5 cells/mi. Then 0.2 milliliter of this suspension was administered I.V. in the tail vein of mice so that the final inoculum was 7.5×10^4 cells/mouse.
The assay then was carried out by administering aqueous solutions of Compound A-Ia at various concentrations intraperitoneally (I.P.), twice daily (b.i.d.) for four consecutive days to 18 to 20 gram female DBA/2 mice, which previously had been infected with Candida albicans in the manner described above. Distilled water was administered I.P. to C. albicans challenged mice as controls. After seven days, the mice were sacrificed by carbon dioxide gas, paired kidneys were removed aseptically and placed in sterile polyethylene bags containing 5 milliters of sterile saline. The kidneys were homogenized in the bags, serially diluted in sterile saline and aliquots spread on the surface of SDA plates. The plates were incubated at 35° C. for 48 hours and yeast colonies were enumerated for determination of colony forming units (CFU) per gram of kidneys. Compound A-Ia gave 99 percent reduction of recoverable Candida CFUs at 0.4 mg/kg I.P. twice daily for four consecutive days.

Pneumocystis carinii = Pneumocystis carinii pneumonia in immunosuppressed rats, lung cysts; type: in vivo, Sprague-Dawley rats; details: sc twice daily for four days, compared with untreated or solvent controls
Procedure: The compounds of the present invention may also be useful for inhibiting or alleviating Pneumocystis carinii infections in immune compromised patients. […] Before drug treatment, two rats are sacrificed to confirm the presence of Pneumocystis carinii pneumonia (PCP). Five rats (weighing approximately 150 grams) are injected twice daily for four days subcutaneously (sc) with Compound A-Ia in 0.25 ml of vehicle (distilled water). A vehicle control is also carried out. All animals continue to receive dexasone in the drinking water and low protein diet during the treatment period. At the completion of the treatment, all animals are sacrificed, the lungs are removed and processed, and the extent of disease determined by microscopic examination of stained slides for the presence of cysts.

[1] = system: C. pseudotropicalis MY 1100; assay: Minimum fungicidal concentration (MFC), microbroth dilution assay in YNBD; type: cell-based, Candida pseudotropicalis; details: 35° C. 24 hours, then SDA 24 hours at 28° C.
Procedure: as §1, §2, §3, §4, §5

C. Albicans MY 1028 = assay: as above; type: cell-based, Candida albicans; details: 35° C. 24 hours, then SDA 24 hours at 28° C.
Procedure: as §1, §2, §3, §4
(§6) After recording the MIC, the plates were shaken to resuspend the cells. Thereafter, 1.5 μl samples from the wells in the 96-well microplate were transferred to a single well tray containing Sabouraud dextrose agar. The inoculated trays were incubated 24 hours at 28° C. and then read for minimum fungicidal concentration (MFC). MFC is defined as the lowest concentration of drug showing no growth or less than 4 colonies per spot.

C. Albicans MY 1730 = assay: as above; type: cell-based, Candida albicans; details: 35° C. 24 hours, then SDA 24 hours at 28° C.
Procedure: as §1, §2, §3, §4, §6

C. Albicans MY 1055 = assay: as above; type: cell-based, Candida albicans; details: 35° C. 24 hours, then SDA 24 hours at 28° C.
Procedure: as §1, §2, §3, §4, §6

C. tropicalis MY 1012 = assay: as above; type: cell-based, Candida tropicalis; details: 35° C. 24 hours, then SDA 24 hours at 28° C.
Procedure: as §1, §2, §3, §4, §5

Substance: 1-[4-hydroxy-5-aminoethylthio-N^2 -(10,12-dimethyl-1-oxotetradecyl)ornithine]-5-(3-hydroxyglutamine)-6-(3-hydroxyproline)echinocandin B trifluoroacetate [Compound A-Ia]
- MFC (C. parapsilosis MY 1010): 0.25 µg/mL
- reduction of recoverable Candida CFUs (Candida albicans MY 1055): 99%
- extent of disease: cysts in stained slides from the lungs (Pneumocystis carinii): prevention of or reduction of cysts
- MFC [1]: 0.25 µg/mL
- MFC (C. Albicans MY 1028): 0.5 µg/mL
- MFC (C. Albicans MY 1730): 0.125 µg/mL
- MFC (C. Albicans MY 1055): 0.5 µg/mL
- MFC (C. tropicalis MY 1012): 0.125 µg/mL
